Kd data for four compounds are collected here from paper doi:10.1101/2023.03.26.531482v1 (biorxiv, 2023).

Experiment [1] deals with MtDTBS (Mycobacterium tuberculosis dethiobiotin synthetase) (Mycobacterium tuberculosis, UniProt P9WPQ5).
Experiment [2] concerns the target T1, MtDTBS (Mycobacterium tuberculosis dethiobiotin synthetase) (Mycobacterium tuberculosis, UniProt P9WPQ5).
T1 sequence (P9WPQ5 1-226): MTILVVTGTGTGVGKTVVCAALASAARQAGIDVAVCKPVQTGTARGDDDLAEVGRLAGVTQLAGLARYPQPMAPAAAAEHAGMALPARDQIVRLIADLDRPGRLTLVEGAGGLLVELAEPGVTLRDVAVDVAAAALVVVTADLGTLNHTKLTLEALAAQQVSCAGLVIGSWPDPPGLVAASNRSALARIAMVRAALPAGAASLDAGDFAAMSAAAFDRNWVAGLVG
Briefly: biochemical.

Where two headings read alike, the source gives them in different places.

Compound `c1ccc2c(c1)CCC1(C2)NCCc2[nH]cnc21` (stereo not shown) [B1] displayed a Kd in experiment [1] of 1240 ± 180 µM.

With `O=C1CC(c2ccc(F)cc2)Cc2[nH]ncc21` (stereo not shown) [B3], the dissociation constant (Kd) in experiment [1] stood at 620 ± 140 µM. Against the preceding compound, the Kd is about 2-fold lower.

For `O=C1CC[N+](=Cc2cccc(C(F)(F)F)c2)[N-]1` [B7], in experiment [1], the dissociation constant (Kd) turned out to be 680 ± 30 µM.

The compound `O=C1Oc2ccccc2C2(O)C3CCCC3C12` (stereo not shown) [compound 1, 9b-hydroxy-6b,7,8,9,9a,9b-hexahydrocyclopenta[3,4]cyclobuta[1,2-c]chromen-6(6aH)-one] came in with a Kd in experiment [2] of 580 ± 40 µM.

The Kd is the free concentration of one partner at which half of the binding sites on the other are occupied at equilibrium, for simple one-to-one binding.
